This passage reports IC50 and ED50 results from patent US5811445A, “Method of preventing abnormal stimulation of AT1 and AT2 receptors” (Roussel Uclaf, priority 1994, dated 1998).

Assay [1] has as its target T1, AT1 receptor of angiotensin II (Rattus norvegicus, UniProt P25095).
T1 construct: A fresh membrane preparation obtained from rat's liver is used; from tissue; host or cells: rat liver membranes
T1 sequence (P25095 1-359): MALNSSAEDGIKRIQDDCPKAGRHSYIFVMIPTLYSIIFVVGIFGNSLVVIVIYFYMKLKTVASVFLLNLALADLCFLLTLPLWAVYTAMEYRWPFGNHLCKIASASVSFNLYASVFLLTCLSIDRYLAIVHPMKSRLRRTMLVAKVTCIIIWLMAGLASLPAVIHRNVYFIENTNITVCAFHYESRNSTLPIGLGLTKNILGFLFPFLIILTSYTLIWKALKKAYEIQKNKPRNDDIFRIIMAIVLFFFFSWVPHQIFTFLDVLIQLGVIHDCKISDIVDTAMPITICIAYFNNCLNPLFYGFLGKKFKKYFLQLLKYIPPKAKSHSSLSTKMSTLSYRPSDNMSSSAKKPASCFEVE
The assay can be described thus: Test on the AT1 receptor of angiotensin II (displacement of 125I angiotensin II, rat liver membranes). It is filed as binding. The note with it: for pIC50: rat liver membrane, 125I angiotensin II, 25° C., 150 minutes, read-out: AT1 Receptor IC50; for IC50: products P1 to P13, expressed in nM, read-out: On AT1 receptor IC50. Here is the method: 1 - Test on the AT1 -receptor of angiotensin II
A fresh membrane preparation obtained from rat's liver is used. The tissue is ground up in a polytron in a 50 mM Tris buffer pH 7.4, the grinding is followed by 3 centrifugations at 30,000 g for 15 minutes with intermediate take up of the pellets in the Tris buffer pH 7.4.
(The product is first tested with 3×10^-5 M three times). When the tested product displaces more than 50% of the radioactivity specifically bound to the receptor, it is tested again according to a range of 7 concentrations in order to determine the concentration which inhibits by 50% the radioactivity specifically bound to the receptor. In this way the 50% inhibitory concentration is determined).
(§1) After incubation at 25° C. for 150 minutes, placing in a water-bath at 0° C. for 5 minutes, filtration under vacuum, and rinsing with Tris buffer pH 7.4, the radioactivity is counted in the presence of a scintillating solid.

Assay [2] has as its target T2, AT2 receptor of angiotensin II (Oryctolagus cuniculus, UniProt G1T351).
T2 construct: A fresh membrane preparation obtained from rabbit's uterus is used; from tissue; host or cells: uterus membranes of estradiol-treated rabbits
T2 sequence (G1T351 1-363): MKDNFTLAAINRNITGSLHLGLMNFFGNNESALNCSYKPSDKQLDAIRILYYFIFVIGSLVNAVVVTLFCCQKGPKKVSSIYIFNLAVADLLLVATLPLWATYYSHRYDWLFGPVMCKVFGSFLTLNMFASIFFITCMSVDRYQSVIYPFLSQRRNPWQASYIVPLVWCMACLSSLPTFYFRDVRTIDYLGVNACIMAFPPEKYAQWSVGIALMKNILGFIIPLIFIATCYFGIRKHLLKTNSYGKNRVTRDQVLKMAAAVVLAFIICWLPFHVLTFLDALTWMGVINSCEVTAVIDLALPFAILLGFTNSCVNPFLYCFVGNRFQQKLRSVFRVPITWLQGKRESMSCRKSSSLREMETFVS
The assay can be described thus: Test on the AT2 receptor of angiotensin II (displacement of 125I angiotensin II, rabbit uterus membranes). It is filed as binding. The note with it: for pIC50: rabbit uterus membrane (estradiol pre-treated), 125I angiotensin II, 25° C., 150 minutes, read-out: AT2 Receptor IC50; for IC50: products P1 to P13, expressed in nM, read-out: On AT2 receptor IC50. As to the method:
2) Test on the AT2 receptor of angiotensin II
The tissue is ground up in a polytron in a 50 mM Tris buffer pH 7.4, and the grinding is followed by 3 centrifugations at 30,000 g for 15 minutes, with intermediate take up of the pellets in the Tris buffer pH 7.4.
The homogenate obtained is preincubated for 20 minutes at 25° C. in the presence of 10 mM dithiothreitol, then brought back to 0°-4° C.
The product is first tested at 3.10^-5 M three times. When the tested product displaces more than 50% of the radioactivity specifically bound to the receptor, it is tested again according to a range of 7 concentrations in order to determine the concentration which inhibits by 50% the radioactivity specifically bound to the receptor. In this way the 50% inhibitory concentration is determined.
as §1

The test system of assay [3] is angiotensin II (pressure effects). As to the kind of experiment: Test for antagonistic activity of angiotensin II in the demedullated rat. It counts as in vivo, Male Sprague-Dawley rats. The note with it: IV, inhibition of pressure effects of angiotensin II (0.75 micrograms/kg), read-out: ID50 IV. Here is the method: 3 - Test for antagonistic activity of angiotensin II in the demedullated rat
Male Sprague-Dawley rats (250 to 350 g) are anaesthetized by an intraperitoneal injection with sodium pentobarbital (60 mg/kg). The diastolic arterial pressure is recorded by means of a heparin catheter (PE50) introduced into the left carotid of the animal, and connected to a pressure processor (Gould, Pressure Processor) via a Gould pressure sensor.
A catheter is introduced into the right jugular vein of the animal in order to allow injection of the molecules being studied.
The animal is placed under assisted respiration. A bilateral section of the vagus nerves is carried out. The rat is then demedullated.
After a sufficient stabilization period, study of the antagonism of the molecules vis-a-vis angiotensin II (Hypertensin, CIBA) is carried out in the following manner:
1 - Three consecutive injections of angiotensin II (0.75 micrograms/kg) 15 minutes apart allow a reproducible and stable pressure response to be obtained.
2 - While maintaining a periodicity of 15 minutes for the administration of angiotensin II, the molecules (0.01 to 10 mg/kg) are injected 5 minutes before the angiotensin II.
The pressure effects of angiotensin II in the presence of the antagonist are expressed as a percentage of the pressure effects of angiotensin II administered alone. The 50% inhibitory dose (ID50) of the effect studied is thus determined.
Each animal is considered as its own control.

Assay [4] shares this test system. The description is as above. The note with it: PO, inhibition of pressure effects of angiotensin II (0.75 micrograms/kg), read-out: ID50 PO. It is filed as in vivo, Male Sprague-Dawley rats.

pIC50: −log10 of the molar value. Read-outs that look alike come from different tables or passages of the source.

With `CCCCC(O)(C(=O)O)c1c(SC)nc(CCC)n1Cc1ccc(-c2ccccc2S(=O)(=O)NC(=O)NCc2ccccc2)cc1` (stereo not drawn) [Example 32, sodium alpha-butyl alpha-hydroxy 4-(methylthio) 1-[(2'-(((((phenylmethyl)amino)carbonyl)amino)sulphonyl) (1,1'-biphenyl) 4-yl)methyl] 2-propyl 1H-imidazole 5-acetate], the pIC50 (usually −log10 of the IC50, conventionally taken in molar units) in assay [1] was 9.30; in assay [2], 9.10. The ED50 in assay [3] turned out to be 0.46 mg/kg.

Turning to `CCCCc1nc(SC)c(C(=O)O)n1Cc1ccc(-c2ccccc2S(=O)(=O)NC(=O)C(c2ccccc2)c2ccccc2)cc1` [Example 30, 2-butyl 1-[(2'-(((diphenylacetyl)amino)sulphonyl) (1,1'-biphenyl) 4-yl)methyl] 4-(methylthio) 1H-imidazole 5-carboxylic acid], the ED50 in assay [3] was found to be 0.93 mg/kg.

Turning to `CCCCc1nc(SC)c(C(=O)O)n1Cc1ccc(-c2ccccc2S(=O)(=O)NC(=O)NCC2CCCCC2)cc1` [Example 75, 2-butyl 1-((2'-(((((cyclohexylmethyl)amino)carbonyl)amino)sulphonyl) (1,1'-biphenyl) 4-yl)methyl) 4-(methylthio) 1H-imidazole 5-carboxylic acid], the IC50 (commonly the point on the concentration scale where inhibition reaches its midpoint) in assay [1] was 0.23 nM; in assay [2], 17 nM. Also, the pIC50 in assay [1] was 10.30. The ED50 in assay [3] worked out at 0.35 mg/kg.

Turning to `CCCc1nc(SC(F)F)c(C(=O)O)n1Cc1ccc(-c2ccccc2S(=O)(=O)NC(=O)NCc2ccccc2)cc1` [Example 46, 4-((difluoromethyl)thio) 1-((2'-(((((phenylmethyl)amino)carbonyl)amino)sulphonyl) (1,1'-biphenyl) 4-yl)methyl) 2-propyl 1H-imidazole 5-carboxylic acid], the pIC50 in assay [1] is 9.96; in assay [2], 9.59. Moreover, the ED50 in assay [3] was 0.26 mg/kg; in assay [4] it was 2 mg/kg.

`CCCc1nc(SC)c(C(=O)O)n1Cc1ccc(-c2ccccc2S(=O)(=O)NC(=O)NCC2CCCCC2)cc1` [Example 23, sodium 1-((2'-(((((cyclohexylmethyl)amino)carbonyl)amino)sulphonyl) (1,1'-biphenyl) 4-yl)methyl] 4-(methylthio) 2-propyl 1H-imidazole 5-carboxylate]: the pIC50 is 9.70 in assay [1] and 8.70 in assay [2]. Also, the ED50 in assay [3] is 0.3 mg/kg; in assay [4] it was 1.54 mg/kg.

Consider `CCCc1nc(SC)c(C(=O)O)n1Cc1ccc(-c2ccccc2S(=O)(=O)NC(=O)Nc2ccccc2)cc1` [Example 62, 4-(methylthio) 1-((2'-((((phenylamino)carbonyl)amino)sulphonyl) (1,1'-biphenyl) 4-yl)methyl) 2-propyl 1H-imidazole 5-carboxylic acid], for which the ED50 in assay [3] was found to be 0.52 mg/kg.

`CCCc1nc(SC(F)F)c(C(=O)O)n1Cc1ccc(-c2ccccc2S(=O)(=O)NC(=O)NCCc2cccs2)cc1` [Example 47]: the pIC50 in assay [1] was 10.52. Further, the results for the ED50 in assay [3] and in assay [4] were 0.33 mg/kg and 3 mg/kg, respectively.

On to `CCCCc1nc(SC)c(C(O)CC(=O)O)n1Cc1ccc(-c2ccccc2S(=O)(=O)NC(=O)NCc2ccccc2)cc1` (stereo not drawn) [Example 65, 2-butyl beta-hydroxy 4-(methylthio) 1-((2'-(((((phenylmethyl)amino)carbonyl)amino)sulphonyl) (1,1'-biphenyl) 4-yl)methyl) 1H-imidazole 5-propionic acid], for which the ED50 in assay [3] turned out to be 0.05 mg/kg.

Regarding `CCCCc1nc(SC)c(C(=O)O)n1Cc1ccc(-c2ccccc2S(=O)(=O)NC(=O)NCc2ccc(OC)cc2)cc1` [Example P5, 2-butyl 1-[(2'-((((((4-methoxy)phenylmethyl)amino)carbonyl)amino)sulphonyl) (1,1'-biphenyl) 4-yl)methyl] 4-methylthio 1H-imidazole 5-carboxylic acid], the IC50 in assay [1] was determined as 0.3 nM; in assay [2], 25 nM.

For `CCCCc1nc(SC)c(C(=O)O)n1Cc1ccc(-c2ccccc2S(=O)(=O)NC(=O)NCCCCc2ccccc2)cc1` [Example P4, 2-butyl 4-(methylthio) 1-[(^2 '-(((((1-(4-phenylbutyl))amino)carbonyl)amino)sulphonyl) (1,1'-biphenyl) 4-yl)methyl] 1H-imidazole 5-carboxylic acid], the IC50 came to 0.5 nM in assay [1] and 47 nM in assay [2].

Consider `CCCc1nc(SC(F)F)c(C(=O)O)n1Cc1ccc(-c2ccccc2S(=O)(=O)NC(=O)NCCc2ccccc2)cc1` [Example 48], for which the ED50 in assay [3] came out at 0.64 mg/kg.

As to `CCCCc1nc(SC)c(C(C)(O)C(=O)O)n1Cc1ccc(-c2ccccc2S(=O)(=O)NC(=O)OCc2ccccc2)cc1` (stereo not drawn) [Example 7, 2-butyl alpha-hydroxy alpha-methyl 4-(methylthio) 1-[(2'-((((phenylmethoxy)carbonyl)amino)sulphonyl) (1,1'-biphenyl) 4-yl)methyl] 1H-imidazole 5-acetic acid], the results for the negative logarithm of the IC50 (pIC50) in assay [1] and in assay [2] were 9.15 and 8.28, respectively. The ED50 in assay [3] stood at 0.6 mg/kg.

`CCCCc1nc(SC)c(C(N)=O)n1Cc1ccc(-c2ccccc2S(=O)(=O)NC(=O)NCCC)cc1` [Example 35, 2-butyl 4-(methylthio) 1-((2'-((((propylamino)carbonyl)amino)sulphonyl) (1,1'-biphenyl) 4-yl)methyl) 1H-imidazole 5-carboxamide]: the ED50 in assay [3] is 0.05 mg/kg.

`CCCc1nc(SC(F)F)c(C(=O)O)n1Cc1ccc(-c2ccccc2S(=O)(=O)NC(=O)NCc2cccs2)cc1` [Example 50, 4-((difluoromethyl)thio) 2-propyl 1-((2'-(((((2-thienylmethyl)amino)carbonyl)amino)sulphonyl) (1,1'-biphenyl) 4-yl)methyl) 1H-imidazole 5-carboxylic acid]: the pIC50 in assay [1] is 10.22; in assay [2], 8.13. For the same compound, the ED50 in assay [3] turned out to be 0.13 mg/kg.

As for `CCCCc1nc(SC)c(C(=O)O)n1Cc1ccc(-c2ccccc2S(=O)(=O)NC(=O)NCC(C)c2ccccc2)cc1` (stereo not drawn) [Example P3, 2-butyl 4-(methylthio) 1-[(2'-(((((1-beta-phenylpropyl)amino)carbonyl)amino)sulphonyl) (1,1'-biphenyl) 4-yl)methyl] 1H-imidazole 5-carboxylic acid], the values for the IC50 in assay [1] and in assay [2] were 1.1 nM and 11 nM, respectively.
